In US12024531B2, “Immunoproteasome inhibitors” (Principia Biopharma Inc., priority 2017, dated 2024):

Tests used:
Assay type in all cases: biochemical
[1] = target: immunoproteasome LMP7/B5i subunit (Homo sapiens, UniProt P28062); experiment: Caliper-based proteasome enzymatic activity assay, LMP7; conditions: human recombinant immunoproteasome 0.3 nM, FAM peptide substrate 1 μM, rt 3 h
[2] = target: constitutive proteasome β5c subunit (Homo sapiens, UniProt P28074); experiment: Caliper-based proteasome enzymatic activity assay, β5c; conditions: human recombinant constitutive proteasome 0.3 nM, FAM peptide substrate 1 μM, rt 3 h
[3] = target: immunoproteasome LMP2 subunit (Homo sapiens, UniProt P28065); experiment: Caliper-based proteasome enzymatic activity assay, LMP2; conditions: human recombinant immunoproteasome 0.3 nM, FAM peptide substrate 1 μM, rt 2 h

| Compound | IC50 [1] | IC50 [2] | IC50 [3] |
| --- | --- | --- | --- |
| N#CC(=Cc1cc(OCCC(=O)N[C@@H](Cc2ccccc2)B(O)O)ccc1F)c1ccccn1 [Example 43, (R)-(1-(3-(3-(2-cyano-2-(pyridin-2-yl)vinyl)-4-fluorophenoxy)propanamido)-2-phenylethyl)boronic Acid] | 2.9 nM | 39.4 nM | 122 nM |
| Cc1ccc(C[C@H](NC(=O)CCOc2cccc(C=C(C#N)C(=O)N(C)C)c2)B(O)O)c(C)c1 [Example 44, (R)-(1-(3-(3-(2-cyano-3-(dimethylamino)-3-oxoprop-1-en-1-yl)phenoxy)propanamido)-2-(2,4-dimethylphenyl)ethyl)boronic Acid] | 2.1 nM | 388 nM | 3130 nM |
| Cc1ccc(C[C@H](NC(=O)CCOc2cccc(C=C(C#N)c3ccccn3)c2)B(O)O)c(C)c1 [Example 45, (R)-1-(3-(3-(2-cyano-2-(pyridin-2-yl)vinyl)phenoxy)propanamido)-2-(2,4-dimethylphenyl)ethylboronic Acid] | 4.3 nM | 92.7 nM | 1250 nM |
| COCCNC(=O)C(C#N)=Cc1cccc(OCCC(=O)N[C@@H](Cc2ccccc2)B(O)O)c1 [Example 46, (R)-(1-(3-(3-(2-cyano-3-((2-methoxyethyl)amino)-3-oxoprop-1-en-1-yl)phenoxy)propanamido)-2-phenylethyl)boronic Acid] | 4.6 nM | 141 nM | 370 nM |
| COCC(C)(C)NC(=O)C(C#N)=Cc1cccc(OCCC(=O)N[C@@H](Cc2ccccc2)B(O)O)c1 [Example 47, (R)-(1-(3-(3-(2-cyano-3-((1-methoxy-2-methylpropan-2-yl)amino)-3-oxoprop-1-en-1-yl)phenoxy)propanamido)-2-phenylethyl)boronic Acid] | 5.3 nM | 72.2 nM | 438 nM |
| COC(C)(C)CNC(=O)C(C#N)=Cc1cccc(OCCC(=O)N[C@@H](Cc2ccccc2)B(O)O)c1 [Example 48, (R)-(1-(3-(3-(2-cyano-3-((2-methoxy-2-methylpropyl)amino)-3-oxoprop-1-en-1-yl)phenoxy)propanamido)-2-phenylethyl)boronic Acid] | 5.1 nM | 90.4 nM | 415 nM |
| CN(C)C(=O)C(C#N)=Cc1cccc(COCC(=O)N[C@@H](Cc2ccccc2)B(O)O)c1 [Example 49, (R)-(1-(2-((3-(2-cyano-3-(dimethylamino)-3-oxoprop-1-en-1-yl)benzyl)oxy)acetamido)-2-phenylethyl)boronic Acid] | 4.9 nM | 1130 nM | 2900 nM |
| COc1cccnc1C(C#N)=Cc1cccc(OCCC(=O)N[C@@H](Cc2ccccc2)B(O)O)c1 [Example 51, (R)-(1-(3-(3-(2-cyano-2-(3-methoxypyridin-2-yl)vinyl)phenoxy)propanamido)-2-phenylethyl)boronic Acid] | 20.2 nM | 122 nM | 306 nM |
| CN(C)C(=O)C(C#N)=Cc1cccc(CCOC(=O)N[C@@H](Cc2coc3ccccc23)B(O)O)c1 [Example 53, (R)-(2-(benzofuran-3-yl)-1-(((3-(2-cyano-3-(dimethylamino)-3-oxoprop-1-en-1-yl)phenethoxy)carbonyl)amino)ethyl)boronic Acid] | 1 nM | 212 nM | > 5000 nM |
| N#CC(=Cc1cccc(CCOC(=O)N[C@@H](Cc2ccccc2)B(O)O)c1)c1ccc(C(F)(F)F)cn1 [Example 56, (R)-(1-(((3-(2-cyano-2-(5-(trifluoromethyl)pyridin-2-yl)vinyl)phenethoxy)carbonyl)amino)-2-phenylethyl)boronic Acid] | 3.8 nM | 439 nM | 1770 nM |
| CCN(CC)C(=O)C(C#N)=Cc1cccc(CCNC(=O)N[C@@H](Cc2ccccc2)B(O)O)c1 [Example 61, (R)-(1-(3-(3-(2-cyano-3-(diethylamino)-3-oxoprop-1-en-1-yl)phenethyl)ureido)-2-phenylethyl)boronic Acid] | 43.2 nM | > 5000 nM | > 5000 nM |

Other lines, results leading:

| IC50 [1] | IC50 [2] | IC50 [3] | Compound |
| --- | --- | --- | --- |
| 1.8 nM | 188 nM | > 5000 nM | Cc1ccc(C[C@H](NC(=O)OCCc2cccc(C=C(C#N)c3ccccn3)c2)B(O)O)cc1 [Example 57, (R)-(1-(((3-(2-cyano-2-(pyridin-2-yl)vinyl)phenethoxy)carbonyl)amino)-2-(p-tolyl)ethyl)boronic Acid] |
| 0.9 nM | 354 nM | 544 nM | N#CC(=Cc1cccc(CCOC(=O)N[C@@H](Cc2ccccc2)B(O)O)c1)c1ccncn1 [Example 59, (R)-(1-(((3-(2-cyano-2-(pyrimidin-4-yl)vinyl)phenethoxy)carbonyl)amino)-2-phenylethyl)boronic Acid] |
| 186 nM | > 5000 nM | > 5000 nM | N#CC(=Cc1cccc(CCNC(=O)N[C@@H](Cc2ccccc2)B(O)O)c1)c1ccccn1 [Example 62, (R)-(1-(3-(3-(2-cyano-2-(pyridin-2-yl)vinyl)phenethyl)ureido)-2-phenylethyl)boronic Acid] |
| 1.4 nM | 556 nM | 1510 nM | N#CC(=Cc1cccc(CCOC(=O)N[C@@H](Cc2ccccc2)B(O)O)c1)c1cnccn1 [Example 63, (R)-(1-(((3-(2-cyano-2-(pyrazin-2-yl)vinyl)phenethoxy)carbonyl)amino)-2-phenylethyl)boronic Acid] |
| 2.5 nM | 1920 nM | 4540 nM | CCN(C(=O)C(C#N)=Cc1cccc(CCOC(=O)N[C@@H](Cc2ccccc2)B(O)O)c1)C(C)C [Example 64, (R)-(1-(((3-(2-cyano-3-(ethyl(isopropyl)amino)-3-oxoprop-1-en-1-yl)phenethoxy)carbonyl)amino)-2-phenylethyl)boronic Acid] |
| 0.6 nM | 1190 nM | 3560 nM | C[C@@H]1COC[C@@H](C)N1C(=O)C(C#N)=Cc1cccc(CCOC(=O)N[C@@H](Cc2ccccc2)B(O)O)c1 [Example 65, ((R)-1-(((3-(2-cyano-3-((3R,5R)-3,5-dimethylmorpholino)-3-oxoprop-1-en-1-yl)phenethoxy)carbonyl)amino)-2-phenylethyl)boronic Acid] |
| 4.6 nM | 33.3 nM | 74.4 nM | N#CC(=Cc1ccc2c(c1)CN(CC(=O)N[C@@H](Cc1ccccc1)B(O)O)CC2)c1ccccn1 [Example 66, (R)-(1-(2-(7-(2-cyano-2-(pyridin-2-yl)vinyl)-3,4-dihydroisoquinolin-2(1H)-yl)acetamido)-2-phenylethyl)boronic Acid] |
| 0.7 nM | > 5000 nM | > 5000 nM | C[C@H]1COC[C@H](C)N1C(=O)C(C#N)=Cc1cccc(CCOC(=O)N[C@@H](Cc2ccccc2)B(O)O)c1 [Example 68, ((R)-1-(((3-(2-cyano-3-((3S,5S)-3,5-dimethylmorpholino)-3-oxoprop-1-en-1-yl)phenethoxy)carbonyl)amino)-2-phenylethyl)boronic Acid] |
| 2.2 nM | 3020 nM | 3190 nM | CCN(C(=O)C(C#N)=Cc1cccc(CCOC(=O)N[C@@H](Cc2ccccc2)B(O)O)c1)C(C)(C)C [Example 69, (R)-(1-(((3-(3-(tert-butyl(ethyl)amino)-2-cyano-3-oxoprop-1-en-1-yl)phenethoxy)carbonyl)amino)-2-phenylethyl)boronic Acid] |
| 0.9 nM | 2420 nM | 2010 nM | CN(C(=O)C(C#N)=Cc1cccc(CCOC(=O)N[C@@H](Cc2ccccc2)B(O)O)c1)C(C)(C)C [Example 71, (R)-(1-(((3-(3-(tert-butyl(methyl)amino)-2-cyano-3-oxoprop-1-en-1-yl)phenethoxy)carbonyl)amino)-2-phenylethyl)boronic Acid] |
| 1.4 nM | > 5000 nM | > 5000 nM | N#CC(=Cc1cccc(CCOC(=O)N[C@@H](Cc2ccccc2)B(O)O)c1)C(=O)N(C1CCOCC1)C1CCOCC1 [Example 72, (R)-(1-(((3-(3-(bis(tetrahydro-2H-pyran-4-yl)amino)-2-cyano-3-oxoprop-1-en-1-yl)phenethoxy)carbonyl)amino)-2-phenylethyl)boronic Acid] |
| 66.4 nM | 1900 nM | 2000 nM | N#CC(=Cc1cccc(CCNC(=O)N[C@@H](Cc2ccccc2)B(O)O)c1)c1ccc(C(F)(F)F)cn1 [Example 73, (R)-(1-(3-(3-(2-cyano-2-(5-(trifluoromethyl)pyridin-2-yl)vinyl)phenethyl)ureido)-2-phenylethyl)boronic Acid] |
| 3.2 nM | 3410 nM | > 5000 nM | N#CC(=Cc1cc(CO)cc(CCOC(=O)N[C@@H](Cc2ccccc2)B(O)O)c1)c1ccccn1 [Example 76, (R)-(1-(((3-(2-cyano-2-(pyridin-2-yl)vinyl)-5-(hydroxymethyl)phenethoxy)carbonyl)amino)-2-phenylethyl)boronic Acid] |
| 42 nM | 2150 nM | > 5000 nM | Cc1ccc(C[C@H](NC(=O)NCCc2cccc(C=C(C#N)c3ccccn3)c2)B(O)O)cc1 [Example 77, (R)-(1-(3-(3-(2-cyano-2-(pyridin-2-yl)vinyl)phenethyl)ureido)-2-(p-tolyl)ethyl)boronic Acid] |
| 1.6 nM | 390 nM | 690 nM | N#CC(=Cc1cccc(CCOC(=O)N[C@@H](Cc2ccccc2)B(O)O)c1)c1ccc(C#N)cn1 [Example 78, (R)-(1-(((3-(2-cyano-2-(5-cyanopyridin-2-yl)vinyl)phenethoxy)carbonyl)amino)-2-phenylethyl)boronic Acid] |
| 0.9 nM | 998 nM | 1600 nM | CC1(C)COCCN1C(=O)C(C#N)=Cc1cccc(CCOC(=O)N[C@@H](Cc2ccccc2)B(O)O)c1 [Example 79, (R)-(1-(((3-(2-cyano-3-(3,3-dimethylmorpholino)-3-oxoprop-1-en-1-yl)phenethoxy)carbonyl)amino)-2-phenylethyl)boronic Acid] |
